Test results as given in US10059655B2, “Lipids and lipid compositions for the delivery of active agents” (priority 2013, dated 2018).

Assay: Measurement of mRNA encapsulation in lipid nanoparticles (Quant-iT Ribogreen)
Format: physicochemical
Conditions: Leptin mRNA in LNP
Procedure: All equipment and disposable supplies are certified free of RNase activity by the manufacturer or rendered RNase free by use of the RNaseZap reagent (LifeTechnologies). mRNA is encapsulated at a cationic lipid amine to mRNA phosphate (N:P) molar ratio of 4:1. Lipids (cationic lipid, DSPC, cholesterol and lipidated PEG or stealth lipid) are dissolved in ethanol. The molar ratios are 40:10:38:2, respectively. The mixture is sonicated briefly, then gently agitated for 5 minutes and then maintained at 37° C. until use. mRNA is exchanged into citrate buffer pH 5.8-6.0 by use of Amicon Ultra-15 centrifugal concentrators, and the final concentration is adjusted to 0.5 mg/ml and held at 37° C. until use. An equal volume of lipids in ethanol, mRNA in citrate buffer, and citrate buffer alone are drawn into disposable syringes.
Tubing leading from syringes containing lipids and mRNA are attached to the T junction, and tubing leading from the syringe containing citrate buffer alone is paired with the tubing exiting the T-junction over a collection vessel containing a stir bar on an active stir plate. Syringes are placed in a syringe pump set to expel contents at a flow rate of 1 ml per minute. The pump is activated, and the collected mRNA in lipid nanoparticles is transferred to SnakeSkin dialysis tubing (10,000 MWCO, Thermo Scientific). Material is dialyzed against RNAse- and pyrogen-free 1× phosphate buffered saline overnight at 4° C.
Percent encapsulation of mRNA in lipid nanoparticles is determined using the Quant-iT Ribogreen RNA Assay kit (Life Technologies). The LNP-mRNA suspension is assayed in buffer (mRNA outside the particle), and buffer plus Triton X-100 detergent (total mRNA). The difference calculated is the mRNA inside the particle. Prepare a 1000 ng/mL stock from the RNA provided in the kit and use this to generate a standard curve (0 ng/ml, 15.63-1000 ng/ml) in TE and TE+0.75% Triton X-100. Prepare LNP-mRNA samples in TE buffer and TE buffer+0.75% Triton X-100 with appropriate dilution so that reading is in the range of standard curve (400-2,000 fold). In a 384-well plate (Costar non-treated #3573) add 0.04 ml of standard (in duplicate) or sample (in triplicate) per well. Dilute Ribogreen reagent 240-fold in TE buffer and add 0.06 ml per well. Mix contents of wells and measure fluorescence (excitation=480 nm, emission=520 nm). Subtract background values (no RNA) from standard and test sample values and determine the concentrations of RNA in the samples using the standard curves. Determine the percent encapsulation of the sample by dividing the difference in concentrations between sample+triton and sample in buffer alone by the sample+triton concentration.

SMILES | % encapsulation mRNA Leptin [%]
CCCCC/C=C\C/C=C\CCCCCCCC(=O)OCC(COC(=O)CCCCCCC/C=C\C/C=C\CCCCC)COC(=O)CCN1CCN(C)CC1 [Example 2, (9Z,9′Z,12Z,12′Z)-2-(((3-(4-methylpiperazin-1-yl)propanoyl)oxy)methyl)propane-1,3-diyl bis(octadeca-9,12-dienoate)] | 70.5
CCCCC/C=C\C/C=C\CCCCCCCC(=O)OCC(COC(=O)CCCCCCC/C=C\C/C=C\CCCCC)COC(=O)CCCN1CCCC1 [Example 3, (9Z,9′Z,12Z,12′Z)-2-(((4-(pyrrolidin-1-yl)butanoyl)oxy)methyl)propane-1,3-diyl bis(octadeca-9,12-dienoate)] | 32.5
CCCCC/C=C\C/C=C\CCCCCCCC(=O)OCC(COC(=O)CCCCCCC/C=C\C/C=C\CCCCC)COC(=O)CCN1CCOCC1 [Example 10, (9Z,9′Z,12Z,12′Z)-2-(((3-morpholinopropanoyl)oxy)methyl)propane-1,3-diyl bis(octadeca-9,12-dienoate)] | 1.9
CCCCC/C=C\C/C=C\CCCCCCCC(=O)OCC(COC(=O)CCCCCCC/C=C\C/C=C\CCCCC)COC(=O)CCCN(C)C [Example 11, (9Z,9′Z,12Z,12′Z)-2-(((4-(dimethylamino)butanoyl)oxy)methyl)propane-1,3-diyl bis(octadeca-9,12-dienoate)] | 45.4
CCCCC/C=C\C/C=C\CCCCCCCC(=O)OCC(COC(=O)CCCCCC(CCCCCC)CCCCCC)COC(=O)OCCCN(CC)CC (centres unmarked) [Example 23, (9Z,12Z)-3-(((3-(diethylamino)propoxy)carbonyl)oxy)-2-(((7-hexyltridecanoyl)oxy)methyl)propyl octadeca-9,12-dienoate] | 82.0
CCCCC/C=C\C/C=C\CCCCCCCC(=O)OCC(COC(=O)CCCCC(OCCCCCCCC)OCCCCCCCC)COC(=O)OCCCN(CC)CC (centres unmarked) [Example 27, (9Z,12Z)-3-((6,6-bis(octyloxy)hexanoyl)oxy)-2-((((3-(diethylamino)propoxy)carbonyl)oxy)methyl)propyl octadeca-9,12-dienoate] | 80.8
CCCCC/C=C\C/C=C\CCCCCCCC(=O)OCC(COC(=O)CCC(OCCCCCCCC)OCCCCCCCC)COC(=O)C1CCN(C(C)C)CC1 (centres unmarked) [Example 33, 3-((4,4-bis(octyloxy)butanoyl)oxy)-2-(((9Z,12Z)-octadeca-9,12-dienoyloxy)methyl)propyl 1-isopropylpiperidine-4-carboxylate] | 97.4
CCCCC/C=C\C/C=C\CCCCCCCC(=O)OCC(COC(=O)CCC(OCCCCCCCC)OCCCCCCCC)COC(=O)[C@@H]1CCCN1C (stereo partly drawn) [Example 37, (2S)-3-((4,4-bis(octyloxy)butanoyl)oxy)-2-(((9Z,12Z)-octadeca-9,12-dienoyloxy)methyl)propyl 1-methylpyrrolidine-2-carboxylate] | 14.3
CCCCC/C=C\C/C=C\CCCCCCCC(=O)OCC(COC(=O)CCC(OCCCCCCCC)OCCCCCCCC)COC(=O)[C@H]1CCCN1C (stereo partly drawn) [Example 38, (2R)-3-((4,4-bis(octyloxy)butanoyl)oxy)-2-(((9Z,12Z)-octadeca-9,12-dienoyloxy)methyl)propyl 1-methylpyrrolidine-2-carboxylate] | 9.6
CCCCC/C=C\C/C=C\CCCCCCCC(=O)OCC(COC(=O)CCC(OCCCCCCCC)OCCCCCCCC)COC(=O)C1CN(C)CCO1 (centres unmarked) [Example 39, 3-((4,4-bis(octyloxy)butanoyl)oxy)-2-(((9Z,12Z)-octadeca-9,12-dienoyloxy)methyl)propyl 4-methylmorpholine-2-carboxylate] | 10.0
CCCCC/C=C\C/C=C\CCCCCCCC(=O)OCC(COC(=O)CCC(OCCCCCCCC)OCCCCCCCC)COC(=O)C1CCN(C)CC1 (centres unmarked) [Example 41, 3-((4,4-bis(octyloxy)butanoyl)oxy)-2-(((9Z,12Z)-octadeca-9,12-dienoyloxy)methyl)propyl 1-methylpiperidine-4-carboxylate] | 97.5
CCCCC/C=C\C/C=C\CCCCCCCC(=O)OCC(COC(=O)CCC(OCCCCCCCC)OCCCCCCCC)COC(=O)C1CCCN(C)C1 (centres unmarked) [Example 42, 3-((4,4-bis(octyloxy)butanoyl)oxy)-2-(((9Z,12Z)-octadeca-9,12-dienoyloxy)methyl)propyl 1-methylpiperidine-3-carboxylate] | 90.3
CCCCC/C=C\C/C=C\CCCCCCCC(=O)OCC(COC(=O)CCC(OCCCCCCCC)OCCCCCCCC)COC(=O)c1ccc(CN(CC)CC)cc1 (centres unmarked) [Example 44, 3-((4,4-bis(octyloxy)butanoyl)oxy)-2-(((9Z,12Z)-octadeca-9,12-dienoyloxy)methyl)propyl 4-((diethylamino)methyl)benzoate] | 22.4
CCCCC/C=C\C/C=C\CCCCCCCC(=O)OCC(COC(=O)CCC(OCCCCCCCC)OCCCCCCCC)COC(=O)OCCCN1CCCC1 (centres unmarked) [Example 45, (9Z,12Z)-3-((4,4-bis(octyloxy)butanoyl)oxy)-2-((((3-(pyrrolidin-1-yl)propoxy)carbonyl)oxy)methyl)propyl octadeca-9,12-dienoate] | 84.4
CCCCC/C=C\C/C=C\CCCCCCCC(=O)OCC(COC(=O)CCC(OCCCCCCCC)OCCCCCCCC)COC(=O)OCCCN1CCN(C)CC1 (centres unmarked) [Example 46, (9Z,12Z)-3-((4,4-bis(octyloxy)butanoyl)oxy)-2-((((3-(4-methylpiperazin-1-yl)propoxy)carbonyl)oxy)methyl)propyl octadeca-9,12-dienoate] | 63.5
CCCCC/C=C\C/C=C\CCCCCCCC(=O)OCC(COC(=O)CCC(OCCCCCCCC)OCCCCCCCC)COC(=O)OC1CCN(C)C1 (centres unmarked) [Example 47, (9Z,12Z)-3-((4,4-bis(octyloxy)butanoyl)oxy)-2-(((((1-methylpyrrolidin-3-yl)oxy)carbonyl)oxy)methyl)propyl octadeca-9,12-dienoate] | 90.4
CCCCC/C=C\C/C=C\CCCCCCCC(=O)OCC(COC(=O)CCC(OCCCCCCCC)OCCCCCCCC)COC(=O)OC1CN(C)C1 (centres unmarked) [Example 49, (9Z,12Z)-3-((4,4-bis(octyloxy)butanoyl)oxy)-2-(((((1-methylazetidin-3-yl)oxy)carbonyl)oxy)methyl)propyl octadeca-9,12-dienoate] | 82.8
CCCCC/C=C\C/C=C\CCCCCCCC(=O)OCC(COC(=O)CCC(OCCCCCCCC)OCCCCCCCC)COC(=O)OC1CCN(CC)CC1 (centres unmarked) [Example 50, (9Z,12Z)-3-((4,4-bis(octyloxy)butanoyl)oxy)-2-(((((1-ethylpiperidin-4-yl)oxy)carbonyl)oxy)methyl)propyl octadeca-9,12-dienoate] | 83.9
CCCCC/C=C\C/C=C\CCCCCCCC(=O)OCC(COC(=O)CCC(OCCCCCCCC)OCCCCCCCC)COC(=O)OCC1CCN(C)CC1 (centres unmarked) [Example 51, (9Z,12Z)-3-((4,4-bis(octyloxy)butanoyl)oxy)-2-(((((1-methylpiperidin-4-yl)methoxy)carbonyl)oxy)methyl)propyl octadeca-9,12-dienoate] | 82.3
CCCCC/C=C\C/C=C\CCCCCCCC(=O)OCC(COC(=O)CCC(OCCCCCCCC)OCCCCCCCC)COC(=O)OC1CC(C)(C)N(C)C(C)(C)C1 (centres unmarked) [Example 52, (9Z,12Z)-3-((4,4-bis(octyloxy)butanoyl)oxy)-2-(((((1,2,2,6,6-pentamethylpiperidin-4-yl)oxy)carbonyl)oxy)methyl)propyl octadeca-9,12-dienoate] | 32.2
CCCCC/C=C\C/C=C\CCCCCCCC(=O)OCC(COC(=O)CCC(OCCCCCCCC)OCCCCCCCC)COC(=O)NCCCN(C)C (centres unmarked) [Example 53, (9Z,12Z)-3-((4,4-bis(octyloxy)butanoyl)oxy)-2-((((3-(dimethylamino)propyl)carbamoyl)oxy)methyl)propyl octadeca-9,12-dienoate] | 93.5
CCCCC/C=C\C/C=C\CCCCCCCC(=O)OCC(COC(=O)CCCCCCCCC(=O)OCCCCCCCC)COC(=O)C1(C)CCN(C)C1 (centres unmarked) [Example 56, 1-(3-((1,3-dimethylpyrrolidine-3-carbonyl)oxy)-2-(((9Z,12Z)-octadeca-9,12-dienoyloxy)methyl)propyl) 10-octyl decanedioate] | 83.3
CCCCCCCCOC(CCC(=O)OCC(COC(=O)CCC(OCCCCCCCC)OCCCCCCCC)COC(=O)C1CCN(C)C1)OCCCCCCCC (centres unmarked) [Example 57, 2-(((1-methylpyrrolidine-3-carbonyl)oxy)methyl)propane-1,3-diyl bis(4,4-bis(octyloxy)butanoate)] | 95.2
